Series [1] concerns Chloroquine-resistant P. falciparum K 1-strain. The experiment in a line: Antiplasmodial activity, Malstat (pLDH) assay. The conditions noted are these: Plasmodium falciparum; K1 strain, 72 h. It is filed as cell-based. The procedure: (§1) The integrated panel of microbial screens and standard screening methodologies were adopted as previously described. All assays were performed in triplicate at the Laboratory of Microbiology, Parasitology and Hygiene at the University of Antwerp (Antwerp, Belgium). Extracts were tested at five concentrations (64, 16, 4, 1 and 0.25 μg/mL) to establish a full dose-titration and determination of the IC50 (inhibitory concentration 50%). […] The selectivity of activity was assessed by simultaneous cytotoxicity evaluation on the MRC-5 fibroblast cell line.
Chloroquine-resistant P. falciparum K 1-strain was cultured in human erythrocytes O^+ at 37 °C under a low oxygen atmosphere (3% O2, 4% CO2, and 93% N2) in RPMI-1640, supplemented with 10% human serum. Infected human red blood cells (200 μL, 1% parasitaemia, 2% haematocrit) were added to each well and incubated for 72 h. After incubation, test plates were frozen at −20 °C. Parasite multiplication was measured using the Malstat assay, a colorimetric method based on the reduction of 3-acetyl pyridine adenine dinucleotide (APAD) by parasite-specific lactate-dehydrogenase (pLDH).

In series [2] the test system is Mycobacterium intracellulare. The experiment in a line: Antimicrobial activity. Type of series: cell-based, M. intracellulare. The procedure:
(§2) Samples were tested for antimicrobial activity according to the Clinical Laboratory Standard Institution using American type of Culture Collection (ATCC) standard.

A further series relates to Mycobacterium xenopi. Description: Antimicrobial activity. It is filed as cell-based, M. xenopi. The procedure:
as §2

Series [3] relates to Trypanosoma brucei Squib-427 strain. Description: Antitrypanosomal activity, T. brucei trypomastigotes, resazurin. It is filed as cell-based. The following applies: 72 h. The procedure:
as §1
(§3) Trypanosoma brucei Squib-427 strain (suramin-sensitive) was cultured at 37 °C and 5% CO2 in Hirumi-9 medium, supplemented with 10% fetal calf serum (FCS). About 1.5 × 10^4 trypomastigotes/well were added to each well and parasite growth was assessed after 72 h at 37 °C by adding resazurin [29]. For Chagas disease, T. cruzi Tulahuen CL2 (benznidazole-sensitive, LacZ-reporter strain) was maintained on MRC-5 cells in minimal essential medium (MEM) supplemented with 20 mM L-glutamine, 16.5 mM sodium hydrogen carbonate and 5% FCS. […] After incubation at 37 °C for 7 days, parasite growth was assessed by adding the substrate chlorophenol red α-D-galactopyranoside. The color reaction was read at 540 nm after 4 h and absorbance values were expressed as a percentage of the blank controls.
(Resazurin is reduced to fluorescent resorufin, in cell work by metabolically active cells.)

The next series deals with S. aureus. The experiment in a line: Antimicrobial activity. The conditions noted are these: Staphylococcus aureus. It is filed as cell-based. The procedure: as §2
The next series has as its system P. aeruginosa. Description: Antimicrobial activity. It is filed as cell-based. The conditions noted are these: Pseudomonas aeruginosa. The procedure: as §2
The subject of the next series is E. coli. The experiment in a line: Antimicrobial activity. Type of series: cell-based. The following applies: Escherichia coli. The procedure:
as §2

In the next series the test system is C. albicans. Description: Antimicrobial activity. Type of series: cell-based. The conditions noted are these: Candida albicans. The procedure: as §2
A further series has as its system Mycobacterium smegmatis. The experiment in a line: Antimicrobial activity. The conditions noted are these: Mycolicibacterium smegmatis. It is filed as cell-based. How it is done: as §2
For the next series, the system named is T. cruzi Tulahuen CL2. Description: Antitrypanosomal activity, T. cruzi on MRC-5 cells, LacZ reporter. Type of series: cell-based, Trypanosoma cruzi. The conditions noted are these: 7 days. How it is done: as §1, §3
The subject of the next series is B. subtilis. The experiment in a line: Antimicrobial activity. It is filed as cell-based, Bacillius subtilis. The conditions noted are these: Bacillus subtilis. The procedure: as §2
Series [4] is described as follows: Cytotoxicity assay, resazurin. It is filed as cell-based. The following applies: human, MRC-5 SV2 fibroblast cells. The procedure:
The integrated panel of microbial screens and standard screening methodologies were adopted as previously described. All assays were performed in triplicate at the Laboratory of Microbiology, Parasitology and Hygiene at the University of Antwerp (Antwerp, Belgium). […] The selectivity of activity was assessed by simultaneous cytotoxicity evaluation on the MRC-5 fibroblast cell line. […] MRC-5 SV2 cells were cultivated in MEM, supplemented with L-glutamine (20 mM), 16.5 mM sodium hydrogen carbonate and 5% FCS. […] Cell viability was assessed fluorimetrically after 4 h of addition of resazurin. Fluorescence was measured (excitation 550 nm, emission 590 nm) and the results were expressed as % reduction in cell viability compared to control.

The test system of series [5] is L. infantum MHOM/MA (BE)/67 amastigotes. Description: Antileishmanial activity, intracellular amastigotes in primary peritoneal mouse macrophages. Type of series: cell-based, Leishmania infantum. The conditions noted are these: 5 days. How it is done:
The integrated panel of microbial screens and standard screening methodologies were adopted as previously described. All assays were performed in triplicate at the Laboratory of Microbiology, Parasitology and Hygiene at the University of Antwerp (Antwerp, Belgium). […] The selectivity of activity was assessed by simultaneous cytotoxicity evaluation on the MRC-5 fibroblast cell line. […] L. infantum MHOM/MA (BE)/67 amastigotes were collected from the spleen of an infected donor hamster and used to infect primary peritoneal mouse macrophages. To determine in vitro antileishmanial activity, 3 × 10^4 macrophages were seeded in each well of a 96-well plate. After 2 days outgrowth, 5 × 10^5 amastigotes/well, were added and incubated for 2 h at 37 °C. Pre-diluted plant extracts were subsequently added and the plates were further incubated for 5 days at 37 °C and 5% CO2. Parasite burdens (mean number of amastigotes/macrophage) were microscopically assessed on 500 cells after Giemsa staining of the […] expressed as a percentage of the blank controls without plant extract.

The next series concerns Mycobacterium cheleneoi. Description: Antimicrobial activity. Type of series: cell-based, M. cheleneoi. How it is done:
as §2

The results in this text go back to PMC6270423, “Phytochemical, Antimicrobial and Antiprotozoal Evaluation of Garcinia Mangostana Pericarp and α-Mangostin, Its Major Xanthone Derivative” (Molecules, 2013).

Like-named read-outs stand apart in the source and are kept apart here.

A word on the melting point: it is the temperature of the solid-liquid transition. `COc1cc2oc3cc(OC)c(OC)c(CC=C(C)C)c3c(=O)c2c(O)c1CC=C(C)C` displayed a melting point of 152 to 154 °C.
A word on the IC50: it is the concentration needed to halve the response being measured. A lower IC50 goes with higher potency. A word on the MIC: it is the lowest concentration found to suppress growth. Take `COc1c(O)cc2oc3cc(O)c(CC=C(C)C)c(O)c3c(=O)c2c1CC=C(C)C` [α-Mangostin]: the IC50 in series [1] was 2.2 µM; in series [3] it was 7.9 µM; in [3] (Trypanosoma brucei), 8 to 9 µM; with P. aeruginosa (no activity at all) it was greater than 200 µg/mL; with E. coli (no activity at all), greater than 200 µg/mL; with C. albicans (no activity at all), greater than 200 µg/mL. Further, the IC50 was 8.9 µM with T. cruzi Tulahuen CL2; 8 to 9 µM in the series with T. cruzi Tulahuen CL2 (Trypanosoma cruzi, TULAHUEN, MRC5, 168 h); 8 µM in [5]; 8 to 9 µM in [5] (Leishmania infantum, Macrophage, 120 h). The MIC in series [2] (read-out: MIC Mycobacterium intracellulare) turned out to be 3.7 µM; in series [2] (read-out: MIC Mycobacterium species (M. intracellulare)), 1.5 µg/mL; with Mycobacterium xenopi (read-out: MIC Mycobacterium species (M. xenopi)), 1.5 µg/mL; in the series with Mycobacterium xenopi (read-out: MIC Mycobacterium xenopi), 3.7 µM; with S. aureus, 7.8 µM; against S. aureus (text), 3.2 µg/mL. Besides, the MIC is greater than 200 µM with P. aeruginosa; greater than 200 µM with E. coli; greater than 200 µM against C. albicans; 3.7 µM in the series with Mycobacterium smegmatis (read-out: MIC Mycobacterium smegmatis); 1.5 µg/mL in the series on Mycobacterium smegmatis (read-out: MIC Mycobacterium species (M. smegmatis)); 3.9 µM with B. subtilis. In addition, the MIC was 1.6 µg/mL with B. subtilis (text), 3.7 µM in the series with Mycobacterium cheleneoi (read-out: MIC Mycobacterium cheleneoi) and 1.5 µg/mL in the series with Mycobacterium cheleneoi (read-out: MIC Mycobacterium species (M. cheleneoi)). Moreover, in series [4], the IC50 at 72 h came to 7.5 µM.
